# Experiments:
# [1] = tested on: PKIB in INS1 cells; assay: PKIB expression (mRNA/protein) in INS1 cells; assay type: cell-based, rat; details: DMOG 1 mM
# Description: Moreover, RNAi-mediated depletion of HIF-1α also disrupted PKIB induction, whereas HIF-1α over-expression potentiated it (FIG. 5f, FIGS. 10e and 10f).
# (§1) INS-1 insulinoma cells were cultured in RPMI (corning cellgro) containing 10% fetal bovine serum (Gemini Bio Products), 100 μg/mL penicillin-streptomycin and 1 mM sodium pyruvate (corning cellgro). MIN6 cells were grown in DMEM (corning cellgro) with 10% FBS, 100 μg/mL penicillin-streptomycin and 70 uM beta-mercaptoethanol. For chronic glucose experiments, cells were maintained under low (2.8 mM) or high (20 mM) glucose for 3 days. Exendin-4 (10 nM), Forskolin (10 μM), KCl (40 mM), DMOG (1 mM) and rapamycin (50 nM) were added to cells as indicated. Cellular cAMP levels were measured using an ELISA kit (Cayman Chemical Company) according to manufacturer's instructions.
# Total RNAs from cells or primary islets were extracted using Trizol and cDNA was generated using the Transcriptor First Strand cDNA Synthesis kit (Roche Applied Science). cDNAs were quantified on a lightcycler 480 instrument (Roche Applied Science). […] Libraries were quantitated by Qubit (Invitrogen), and run on a MiSeq instrument with paired-end 75 bp reads using v3 chemistry (Illumina) Data were analyzed by tophat2 and cuffdiff against the mouse mm10 genome build. […]
# [2] = tested on: CREB (Ser133) / CRTC2 in INS1 insulinoma cells; assay: Immunoblot of CREB phosphorylation and CRTC2 dephosphorylation in INS1 insulinoma cells; assay type: cell-based, rat; details: within 30 minutes, FSK 10 μM, KCl 40 mM
# Description: as §1
# Total protein from cultured cells or primary islets was extracted in a Tris-HCl buffer containing 0.5% NP40, protease and phosphatase inhibitors. Proteins were quantified using Bradford reagent and separated using SDS-PAGE. For cellular fractionation, cells were resuspended in hypotonic lysis buffer (40 mM TrisHCl PH 7.4, 10 mM NaCl, 1 mM EDTA with DTT and protease inhibitors). Cells were lysed using a dounce homogenizer and centrifuged. Cytosolic supernatants were collected. Nuclear pellets were washed 3 times and resuspended in nuclear extraction buffer (40 mM TrisHCl PH 7.4, 420 mM NaCl, 10% Glycerol, 1 mM EDTA). Samples were sonicated and centrifuged. Nuclear supernatants were collected. […]
# [3] = Matthews et al. 2008; cited from earlier work
# [4] = mildly hyperglycaemic patients with Type 2 diabetes on metformin (Ratner et al. 2010); cited from earlier work
# [5] = molecular target: human GLP1 receptor (Homo sapiens, UniProt P43220); details: greater affinity vs native GLP1; cited from earlier work
# Sequence of human GLP1 receptor (P43220 24-463): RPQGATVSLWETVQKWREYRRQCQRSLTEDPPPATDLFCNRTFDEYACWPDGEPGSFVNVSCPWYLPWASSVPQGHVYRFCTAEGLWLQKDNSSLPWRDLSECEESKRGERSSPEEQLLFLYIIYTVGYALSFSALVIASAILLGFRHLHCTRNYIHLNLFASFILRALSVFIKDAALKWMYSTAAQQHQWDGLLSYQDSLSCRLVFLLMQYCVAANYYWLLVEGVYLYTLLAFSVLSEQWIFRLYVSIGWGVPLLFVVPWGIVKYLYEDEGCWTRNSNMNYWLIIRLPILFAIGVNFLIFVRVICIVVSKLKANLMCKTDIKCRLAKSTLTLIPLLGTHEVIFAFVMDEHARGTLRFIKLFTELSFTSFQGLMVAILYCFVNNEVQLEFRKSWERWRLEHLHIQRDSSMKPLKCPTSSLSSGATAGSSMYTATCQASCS
compound,measurement,setting,value
COC(=O)CNC(=O)C(=O)OC [DMOG],PKIB expression,[1],upregulated PKIB expression
[Cl-].[K+] [KCl],phosphorylation of CREB at Ser133,[2],stimulated CREB phosphorylation to a lesser extent
Albiglutide: recombinant human serum albumin (HSA)-GLP1 hybrid protein; dipeptidyl peptidase-4-resistant glucagon-like peptide-1 dimer fused to human albumin,half-life after administration,[3],four to seven
Lixisenatide: exendin-4-based GLP1 receptor agonist,glycaemic control,[4],significantly improve glycaemic control
same,affinity for the human GLP1 receptor compared with native GLP1,[5],approximately 4 fold

# From patent publication US10258639B2, “Methods for treating insulin resistance and for sensitizing patients to GLP1 agonist therapy” (Research Development Foundation, priority 2014, dated 2019)
